Source: patent US10501473B2, “Fused heterocyclic ring compounds and method of treating retinal disease using same” (THE INDUSTRY & ACADEMIC COOPERATION IN CHUNGNAM NATIONAL …, priority 2014, dated 2019)

How the values were obtained:
[1] = target: RIPK1 (receptor-interacting serine/threonine-protein kinase 1) (Homo sapiens (Human), UniProt Q13546); test: RIPK1 inhibitory activity, autophosphorylation of immuno-precipitated RIPK1 with [32P]γ-ATP; type: biochemical; conditions: for activity at 100 µM: compound 100 μM, remaining RIPK1 phosphorylation; for inhibition at 100 µM: Table 2, 100 μM
RIPK1 (receptor-interacting serine/threonine-protein kinase 1), sequence (Q13546 whole entry, species assumed): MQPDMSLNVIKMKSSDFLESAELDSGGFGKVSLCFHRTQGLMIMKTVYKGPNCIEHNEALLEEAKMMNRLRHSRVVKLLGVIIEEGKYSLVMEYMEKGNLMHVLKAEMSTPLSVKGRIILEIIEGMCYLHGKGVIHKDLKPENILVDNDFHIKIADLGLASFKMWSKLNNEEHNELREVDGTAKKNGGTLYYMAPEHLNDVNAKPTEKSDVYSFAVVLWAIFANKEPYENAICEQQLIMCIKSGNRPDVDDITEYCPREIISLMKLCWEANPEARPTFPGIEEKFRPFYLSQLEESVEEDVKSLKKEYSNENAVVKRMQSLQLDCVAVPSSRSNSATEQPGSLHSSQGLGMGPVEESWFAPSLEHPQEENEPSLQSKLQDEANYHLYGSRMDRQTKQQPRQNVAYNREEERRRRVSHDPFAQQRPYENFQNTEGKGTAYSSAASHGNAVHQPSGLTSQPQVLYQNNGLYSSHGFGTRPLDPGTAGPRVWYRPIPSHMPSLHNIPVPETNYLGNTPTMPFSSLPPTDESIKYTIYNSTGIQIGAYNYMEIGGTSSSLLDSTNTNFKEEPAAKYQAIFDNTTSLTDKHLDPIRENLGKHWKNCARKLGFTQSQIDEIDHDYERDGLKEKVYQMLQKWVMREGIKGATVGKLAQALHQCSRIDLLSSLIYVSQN
Experimental: The following experiment was performed to evaluate RIPK1 (receptor-interacting serine/threonine-protein kinase 1) inhibitory activity of the compounds of examples of the invention.
RIPK1 enzyme immuno-precipitated in HEK293 (Human Embryonic Kidney 293) cell lysate was used as kinase. The experiment was performed according to the method described in Cell. 12; 137(6):1112-23(2009). RIPK1 protein was over-expressed in HEK293 cell line, to which lysis buffer (50 mM Tris-Cl [pH 8.0], 150 mM NaCl, 1 mM EDTA, 1% NP-40, 0.4 mM phenylmethylsulfonyl fluoride (PMSF)) was added for cell lysis. Centrifugation was performed at 13,000 rpm for 10 minutes to separate the supernatant. RIPK1 monoclonal antibody (610459, BD Bioscience) and A/G agarose beads (sc-2003, Santa Cruz Biotechnology) were added thereto, followed by immuno-precipitation in a 4° C. rotator for 12 hours.
The immune complex was washed with lysis buffer twice and then washed with kinase assay buffer (20 mM HEPES [pH7.6], 2 mM DTT, 1 mM NaF, 1 mM Na3Vo4, 20 mM β-glycerophosphate, 20 mM PNPP, 20 mM MgCl2, 20 mM MnCl2, 1 mM Benzamidie, and 1 mM EDTA) lastly. Kinase assay buffer and the compound were added to the RIPK1 immuno-precipitate, followed by reaction in a 24° C. constant-temperature water bath for 15 minutes. Additional reaction was induced for 30 minutes at 30° C. after 100 μM of ATP and 10 μCi[^32P] γ-ATP were added thereto. The reaction mixture was washed with kinase assay buffer once, to which protein loading buffer was added, followed by heating at 100° C. for 3 minutes. The reaction mixture was then loaded on 8% SDS-PAGE gel. Radioactive image of the phosphorylated RIPK1 was detected with FLA-7000 (GE healthcare). The image Quant TL program was used for the quantification.

[2] = system: RGC-5 (rat ganglion cell); test: Retinal nerve protection under oxygen-glucose deprivation (OGD), LDH assay; type: cell-based; conditions: RGC-5, OGD 15 hours, compound 20 μM, DMSO control = 100%
Experimental: The following experiment was performed to evaluate the protective effect of the compounds of examples of the invention on the retinal nerve under oxygen-glucose deprivation condition.
The retinal ganglion cell line RGC-5 (rat ganglion cell) was cultured in DMEM (Dulbecco's modified Eagle's medium) supplemented with 10% FBS (fetal bovine serum) and 1% penicillin/streptomycin. The cells were distributed in a 96-well plate at the density of 8×10^3 cells/well, followed by culture in a 37° C., CO2 incubator for 12 hours. The cells were washed with PBS once and the medium was replaced with glucose free DMEM. The cells were treated with either DMSO (0.1%) alone (control) or with the compounds of examples (20 μM) shown in Table 3, followed by culture in an anaerobic incubator (10% H2, 5% CO2, 85% N2, 37° C., chamber (ThermoForma, USA)) for 15 hours to induce cell death.
The level of cell death was measured by LDH (lactate dehydrogenase, Roche) assay. The LDH assay is a method for measuring the activity of LDH released from the damaged cells into the culture medium. NAD^+ was reduced to NADH and H^+ by LDH, and the bond of tetrazolium salt INT ring was cleaved by diaphorase to form formazan. Absorbance of the formazan was measured at 490 nm by using Victor 3 (PerkinElmer). The absorbance reflects the amount of dead cells.
The level of the control LDH under oxygen-glucose deprivation condition was regarded as 100%, and the level of LDH in the cell group cultured in normal medium (10% FBS, DMEM) for the same time was regarded as 0%. Based on that, the levels of LDH of the cell groups treated with the compounds of the invention under oxygen-glucose deprivation condition were converted into the relative ratio of cell death. The compounds of examples of the invention were treated to wells, each compound for three wells, and then each experiment was performed in triplicate.

| activity at 100 µM [1] [%] | inhibition at 100 µM [1] [%] | Compound | Death of retinal nerve cell (%) [2] [%] |
| --- | --- | --- | --- |
| 16.5 ± 7.8 |  | COc1ccc(-c2cccc3sc(C(=O)N4CCOCC4)cc23)cc1 [Example 34, (4-(4-methoxyphenyl)benzo[b]thiophene-2-yl)(morpholino)methanone] | 55.4 ± 18.1 |
| 43 ± 7.1 | ≥ 50 | COc1ccc(-c2cccc3sc(C(=O)N4CCOCC4)cc23)cn1 [Example 55, (4-(6-methoxypyridine-3-yl)benzo[b]thiophene-2-yl)(morpholino)methanone] | 47.2 ± 12.4 |
| 86.7 ± 34.6 |  | O=C(c1cc2c(-c3ccc(OC(F)(F)F)cc3)cccc2s1)N1CCOCC1 [Example 45, morpholino(4-(4-(trifluoromethoxy)phenyl)benzo[b]thiophene-2-yl)methanone] | 89.4 ± 14.0 |
| 90 ± 2.8 |  | O=C(O)c1ccc(-c2cccc3sc(C(=O)N4CCOCC4)cc23)cc1 [Example 33, 4-(2-(morpholine-4-carbonyl)benzo[b]thiophene-4-yl)benzoic acid] | 51.5 ± 7.0 |
| 21 ± 7.1 | ≥ 50 | O=C(c1cc2c(Oc3ccc(F)cc3)cccc2s1)N1CCOCC1 [Example 59, (4-(4-fluorophenoxy)benzo[b]thiophene-2-yl)(morpholino)methanone] | 59.5 ± 14.7 |
| 6.5 ± 4.9 |  | Cc1ccc(-c2cccc3sc(C(=O)N4CCOCC4)cc23)cc1 [Example 32, morpholino(4-p-tolylbenzo[b]thiophene-2-yl)methanone] | 64.6 ± 7.4 |
| 62.5 ± 16.8 |  | CC(=O)Nc1ccc(-c2cccc3sc(C(=O)N4CCOCC4)cc23)cc1 [Example 10, N-(4-(2-(morpholine-4-carbonyl)benzo[b]thiophene-4-yl)phenyl)acetamide] | 49.0 ± 7.0 |
| 54.5 ± 37.5 |  | O=C(c1cc2c(-c3ccc(Br)cc3)cccc2s1)N1CCOCC1 [Example 54, (4-(4-bromophenyl)benzo[b]thiophene-2-yl)(morpholino)methanone] | 74.3 ± 5.1 |
| 58.5 ± 17.7 |  | NC(=O)c1ccc(-c2cccc3sc(C(=O)N4CCOCC4)cc23)cc1 [Example 43, 4-(2-(morpholine-4-carbonyl)benzo[b]thiophene-4-yl)benzamide] | 62.3 ± 1.7 |

The next lines start with the compound.

| Compound | activity at 100 µM [1] [%] | inhibition at 100 µM [1] [%] | Death of retinal nerve cell (%) [2] [%] |
| --- | --- | --- | --- |
| O=C(c1cc2c(-c3ccc(F)cc3)cccc2s1)N1CCC(O)CC1 [Example 48, (4-(4-fluorophenyl)benzo[b]thiophene-2-yl)(4-hydroxypiperidine-1-yl)methanone] | 25.5 ± 0.7 | ≥ 50 | 47.7 ± 13.2 |
| O=C(c1cc2c(Cc3ccc(F)cc3F)cccc2s1)N1CCOCC1 [Example 57, (4-(2,4-difluorobenzyl)benzo[b]thiophene-2-yl)(morpholino)methanone] | 20 ± 14.1 |  | 89.1 ± 16.9 |
| CCN(CC)C(=O)c1cccc2sc(C(=O)N3CCOCC3)cc12 [Example 20, N,N-diethyl-2-(morpholine-4-carbonyl)benzo[b]thiophene-4-carboxamide] | 77 ± 12.5 |  | 43.6 ± 8.5 |
| CN(c1ccc(F)cc1)c1cccc2sc(C(=O)N3CCOCC3)cc12 [Example 69, (4-((4-fluorophenyl)(methyl)amino)benzo[b]thiophene-2-yl)(morpholino)methanone] | 22.5 ± 16.3 | ≥ 50 | 69.4 ± 10.9 |
| O=C(c1cc2c(NS(=O)(=O)c3ccc(F)cc3)cccc2s1)N1CCOCC1 [Example 70, 4-fluoro-N-(2-(morpholine-4-carbonyl)benzo[b]thiophene-4-yl)benzenesulfonamide] | 65 ± 32.5 |  | 48.7 ± 10.3 |
| CN1CCN(C(=O)c2cc3c(-c4ccc(F)cc4)cccc3s2)CC1.Cl [Example 49, (4-(4-fluorophenyl)benzo[b]thiophene-2-yl)(4-methylpiperazine-1-yl)methanone hydrochloride] | 27 ± 5.7 | ≥ 50 | 43.8 ± 13.7 |
| O=C(c1cc2c(SCc3ccc(F)cc3)cccc2s1)N1CCOCC1 [Example 71, (4-(4-fluorobenzylthio)benzo[b]thiophene-2-yl)(morpholino)methanone] | 87 ± 4.2 |  | 89.1 ± 14.9 |
| Cl.NC1CCN(C(=O)c2cc3c(-c4ccc(F)cc4)cccc3s2)CC1 [Example 37, (4-aminopiperidine-1-yl) (4-(4-fluorophenyl)benzo[b]thiophene-2-yl)methanone hydrochloride] | 25.5 ± 14.8 | ≥ 50 | 87.0 ± 13.2 |
| O=C(c1cc2c(Cc3cccc(F)c3)cccc2s1)N1CCOCC1 [Example 56, (4-(3-fluorobenzyl)benzo[b]thiophene-2-yl)(morpholino)methanone] | 54.5 ± 37.5 |  | 81.0 ± 16.1 |
| O=C(c1cc2c(-c3ccc(-c4ccccc4)cc3)cccc2s1)N1CCOCC1 [Example 31, (4-(biphenyl-4-yl)benzo[b]thiophene-2-yl)(morpholino)methanone] | 85.2 ± 3.5 |  | 81.2 ± 8.3 |
| Cn1c(C#N)ccc1-c1cccc2sc(C(=O)N3CCOCC3)cc12 [Example 72, 1-methyl-5-(2-(morpholine-4-carbonyl)benzo[b]thiophene-4-yl)-1H-pyrrole-2-carbonitrile] | 7 ± 8.5 |  | 58.5 ± 16.1 |
| Cc1cc(C)c2cc(C(=O)N3CCOCC3)sc2c1 [Example 17, (4,6-dimethylbenzo[b]thiophene-2-yl)(morpholino)methanone] | 62.5 ± 16.8 |  | 38.5 ± 5.5 |
| O=C(c1cc2cc(O)ccc2[nH]1)N1CCOCC1 [Example 11, (5-hydroxy-1H-indole-2-yl)(morpholino)methanone] | 70.7 ± 28.5 |  | 41.1 ± 3.1 |
| Cn1cc(-c2cccc3sc(C(=O)N4CCOCC4)cc23)cn1 [Example 73, (4-(1-methyl-1H-pyrazol-4-yl)benzo[b]thiophene-2-yl)(morpholino)methanone] | 22 ± 19.8 | ≥ 50 | 62.3 ± 10.1 |
| O=C(c1cc2cc(-c3ccc(F)cc3)ccc2s1)N1CCOCC1 [Example 40, (5-(4-fluorophenyl)benzo[b]thiophene-2-yl)(morpholino)methanone] | 57.5 ± 12 |  | 68.2 ± 11.2 |
| O=C(c1cc2c(S(=O)(=O)Cc3ccc(F)cc3)cccc2s1)N1CCOCC1 [Example 62, (4-(4-fluorobenzylsulfonyl)benzo[b]thiophene-2-yl)(morpholino)methanone] | 82.5 ± 5 |  | 59.3 ± 16.3 |
| O=C(c1cc2ccc3ccccc3c2s1)N1CCOCC1 [Example 6, morpholino(naphtho[1,2-b]thiophene-2-yl)methanone] | 48.5 ± 23.3 | ≥ 50 | 30.7 ± 1.06 |
| O=C(c1cc2c(-c3cccc(-c4ccccc4)c3)cccc2s1)N1CCOCC1 [Example 41, (4-(biphenyl-3-yl)benzo[b]thiophene-2-yl)(morpholino)methanone] | 84.7 ± 6.4 |  | 58.3 ± 6.5 |
| O=C(c1cc2c(-c3ccc(F)cc3)cncc2s1)N1CCOCC1 [Example 2, (4-(4-fluorophenyl)thieno[2,3-c]pyridine-2-yl)(morpholino)methanone] | 45 ± 12.7 | ≥ 50 |  |
